A short description of this data set: gradient 5% acetonitrile 3 min, to 50% in 2 min, to 85% in 15 min, held 3 min, 100 µL/min. The note with it: column: Zorbax Extend-C18 2.1 x 50 mm; eluents: water / acetonitrile, 0.1% formic acid. The gist of the method:
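Standards, all pure, were combined into mixtures of ~100 molecules and run at 100 μL/min on a Zorbax Extend-C18 column (2.1 × 50 mm, 1.8 μm) with water and acetonitrile, each containing 0.1% formic acid. A coupled quadrupole time-of-flight mass spectrometer operated in positive and negative ionization mode. Retention time values come from computationally picked adduct peaks, each inspected manually.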
For `O=C(Nc1ncc(-c2ccccc2)s1)c1ccc(S(=O)(=O)N2CCCCC2)cc1`, the RP-LC retention time came out at 1040 s.
Under `Cc1nn(C(C)C(=O)NCCC(C)C)c(=O)c2nn(-c3ccccc3)c(C)c12` (centres undefined) stands 622 s; under `Cc1oc2nc3c(c(=O)n(CC(=O)OCc4ccccc4)c(=O)n3C)n2c1C`, 840 s; under `O=C(CN1CCN(c2ccc(Cl)cc2)C1=O)N1CCN(C(=O)c2ccco2)CC1`, 695 s.
As for `COc1ccc(C2CC(=O)c3c(C)nc(N4CCN(c5ccccn5)CC4)nc3C2)cc1OC` (centres undefined), the RP-LC retention time turned out to be 676 s.
As to `COc1cccc(NC(=O)C2CCc3nc(N4CCCCC4)ncc3C2)c1` (centres undefined), the RP-LC retention time came to 782 s.
Under `Cc1ccc(F)c2c(=O)c3c([nH]c12)CCN(CC(=O)Nc1cccc(F)c1)C3` stands 620 s.
Under `Cc1ccc(Sc2nccnc2N2CCCC(C(=O)N3CCN(c4ccc(C)cc4)CC3)C2)cc1` (centres undefined) stands 1290 s; under `Cn1nc2n(c1=O)CCN(C(=O)c1cc(C3CC3)[nH]n1)CC2`, 575 s; under `COc1cccc(Cn2c(=O)c3sccc3n(Cc3nc(-c4ccccc4C)no3)c2=O)c1`, 1150 s.
As for `O=C(O)c1cccc(Nc2c(-c3cccc(Cl)c3)nc3cnccn23)c1`, the RP-LC retention time amounted to 737 s.
Consider `O=C(CCc1nc2ccccc2s1)N1C[C@H]2CNC(=O)[C@]23CCCC[C@@H]13`, for which the RP-LC retention time was found to be 705 s.
For the compound `Cc1nc(C2CC23CCN(S(=O)(=O)c2c(C)c(C)cc(C)c2C)CC3)no1` (centres undefined), the RP-LC retention time came out at 1170 s.
`Cc1ccc(CNC(=O)Cn2nc(C(=O)N3CCOCC3)c3ccccc32)cc1` gave an RP-LC retention time of 753 s.
Regarding `CNc1nc(NC(C)C)nc(-n2cnc(SC)n2)n1`, the RP-LC retention time was 722 s.
The compound `Cc1ccccc1CC(=O)NC1CCN(c2ccc(F)cc2)C1=O` (centres undefined) showed an RP-LC retention time of 810 s.
Regarding `CCCC(=O)Nc1ccc2c(c1)CN(C(=O)c1ccc(C)cc1C)C(C(=O)N(C)C)C2` (centres undefined), the RP-LC retention time amounted to 760 s.
Under `O=C(O)Cc1csc(NC(=O)C2CCC(=O)N2)n1` (centres undefined) stands 528 s.
For the compound `Cc1nc(-c2csc(S(=O)(=O)N3CCCC(C(=O)Nc4ccc(F)c(Cl)c4)C3)c2)no1` (centres undefined), the RP-LC retention time came out at 1010 s.
Turning to `O=C(Cc1ccc(F)cc1)N(CC1CCOC1)C1CC1` (centres undefined), the RP-LC retention time is 794 s.
For `COCCNC(=O)C(C)Sc1ccc(=O)n(-c2ccc(C)c(Cl)c2)n1` (centres undefined), the RP-LC retention time stood at 731 s.
`CCOc1ccc(CNC(=O)Cn2cnc3onc(C)c3c2=O)cc1` came in with an RP-LC retention time of 755 s.
Under `COCC(=O)N1CCC(Oc2nccnc2N2CCOCC2)C1` (centres undefined) stands 584 s; under `CCOc1ccc(-c2noc(N3CCC(C(=O)N4CCCC4)CC3)n2)cc1OC`, 782 s; under `c1cncc(-c2nc(-c3ccc(OC4CNC4)cc3)no2)c1`, 605 s.
As to `COC(=O)C1=CN(c2cccc(Cl)c2)c2ccccc2S1(=O)=O`, the RP-LC retention time is 879 s.
Under `O=C(NC1CCCCCC1)C1CCN(c2cncnc2N2CCCCC2)CC1` stands 712 s; under `COc1ccc(-n2c(N)cc(=O)nc2SCC(=O)NC2CCCCC2)cc1`, 601 s.
On to `COc1cccc(NC(=O)Cn2c(C)cc(-c3nnc(-c4ccccc4)o3)c2C)c1`, for which the RP-LC retention time is 921 s.
Under `O=C(NCCc1ccccc1)N1CCN(C(=O)N2C[C@H]3C[C@H](C2)[C@H]2CCCC(=O)N2C3)CC1` stands 629 s.
Regarding `O=C(c1cc(=O)[nH]c2ccccc12)N1CCCC1`, the RP-LC retention time was 598 s.
In turn, `COc1ccc(-c2nnc(-c3cc(S(=O)(=O)N4CCC(C(=O)O)CC4)ccc3Cl)o2)cc1` came in with an RP-LC retention time of 875 s.
Under `COc1cc(NC(=O)CN2C(=O)C(C)(C)c3ccccc32)cc(OC)c1` stands 876 s; under `O=C(CS(=O)(=O)Cc1ccccc1)NCc1ccccc1`, 741 s.
`O=C(Cn1cnc(-c2nc(-c3ccccc3)cs2)c1)N1CCN(c2ccccc2)CC1`: the RP-LC retention time was 853 s.
Under `Cc1ccc(NS(=O)(=O)c2cc(-c3nc(C(C)(C)C)cs3)cs2)c(C)c1` stands 1310 s; under `Cc1oc(-c2ccc(Cl)cc2)nc1CN1CCCC(C(=O)N2CCN(C(=O)c3ccco3)CC2)C1` (centres undefined), 679 s; under `CCCC1O[C@@H]2C[C@H]3[C@@H]4CCC5=CC(=O)C=C[C@]5(C)[C@H]4[C@@H](O)C[C@]3(C)[C@]2(C(=O)CO)O1` (some centres undefined), 1000 s.
Under `Cc1cc(N2CCN(S(=O)(=O)c3ccccc3Cl)CC2)nc(NC2CCCCC2)n1` stands 838 s; under `Cc1cc(NC(=O)Cn2cccc2-c2nc(-c3ccc4c(c3)OCO4)no2)n[nH]1`, 786 s.
Turning to `CCOc1ccccc1NC(=O)C1CCN(S(C)(=O)=O)c2ccccc2O1` (centres undefined), the RP-LC retention time came to 994 s.
Compound `COCCCNC(=O)c1ccc2c(c1)N=C(C)c1cc(Cl)ccc1S2` yielded an RP-LC retention time of 914 s.
In turn, `COc1ccc(C(=O)N2CCN3CCS(=O)(=O)N(C4CC4)C(=O)C3C2)cc1` (centres undefined) returned an RP-LC retention time of 715 s.
On to `CCC(=O)NCCc1csc(C2CCCN(C(=O)CC)C2)n1` (centres undefined), for which the RP-LC retention time came to 591 s.
Under `COc1ccccc1-c1nc(-c2cn(Cc3cccc(F)c3)nn2)no1` stands 936 s; under `Cc1ccc(CNC(=O)C2CCCN(c3cc(=O)n(C)c(=O)n3C)C2)cc1` (centres undefined), 701 s; under `Cc1ccc(NC(=O)N2CCCC2c2nc(-c3ccc(F)cc3F)no2)c(Cl)c1` (centres undefined), 1110 s.
Regarding `CCN(CC)C(=O)Cn1cc(C(=O)C(=O)N(C)Cc2ccccc2)c2ccccc21`, the RP-LC retention time worked out at 890 s.
Compound `COc1ncccc1CNC(=O)NCc1ccco1` returned an RP-LC retention time of 568 s.
As for `Cc1ccc(CN2CCN(CC(=O)Nc3ccc(C)cn3)C(=O)C2=O)cc1`, the RP-LC retention time was 664 s.
Under `Cc1ccc(CNC(=O)c2ccc3c(c2)nc2n3CCN(C3CCCCC3)C2=O)cc1` stands 839 s; under `Cc1ccc(-c2csc(Cc3nc(-c4ccc5c(c4)OCO5)no3)n2)cc1`, 1210 s; under `COc1ccc(-c2nc(NC(=O)c3ccc(C#N)cc3)sc2C)cc1`, 962 s.
With `CC1=C(c2ccccc2)S(=O)(=O)N=C1N1CCCN(C(=O)c2cccnc2)CC1`, the RP-LC retention time stood at 664 s.
Compound `Cc1cc(C)cc(N2CCC(NC(=O)Cc3cccs3)C2=O)c1` (centres undefined) gave an RP-LC retention time of 862 s.
With `CCN(C(=O)CN1C(=O)CCCc2cc(S(=O)(=O)N3CCC(C)CC3)ccc21)c1ccccc1`, the RP-LC retention time is 1050 s.
The compound `Cc1ccc(C(=O)N2CCc3[nH]nc(C(=O)N(C)C)c3C2)cc1F` returned an RP-LC retention time of 625 s.
On to `CC1=C(c2ccc(C)c(C)c2)S(=O)(=O)N=C1N1CCCN(C(=O)C(C)(C)C)CC1`, for which the RP-LC retention time was 903 s.
Under `CCc1cc(-c2csc(S(=O)(=O)Nc3ccc(C)c(C)c3)c2)on1` stands 1050 s.

Values taken from the METLIN SMRT retention time set (Domingo-Almenara et al. 2019).
